Test results published in PubChem BioAssay (NCI).
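Exposure lasted 48 hours, with cells grown in 96-well plates and compounds tested at five concentrations. Abbreviation: GI50, concentration required for 50% inhibition of growth. TGI is the concentration that stops growth completely.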

Test system: MDA-MB-468 breast
Assay: inhibition of tumour cell growth, NCI panel, 48 h

## COC(=O)[C@]12CCC(C)(C)C[C@H]1C1=CC[C@@H]3[C@@]4(C)C/C(=C/c5cccnc5)C(=O)C(C)(C)[C@@H]4CC[C@@]3(C)[C@]1(C)CC2
  GI50: 12300 nM
  TGI: 47200 nM

## C[C@]12CC[C@@H]3c4ccc(Oc5nc(N6CC6)nc(N6CC6)n5)cc4CC[C@H]3[C@@H]1CCC2=O
  GI50: 2000 nM
  TGI: 12600 nM

## COc1ccc(OC(=O)O[C@H]2[C@H](O[C@H]3[C@@H](O)COC(O[C@H]4C[C@H]5[C@@H]6CC=C7C[C@@H](O)CC[C@]7(C)[C@H]6CC[C@]5(C)[C@H]4[C@H](C)C(=O)CCC(C)C)[C@@H]3OC(C)=O)OC[C@@H](O)[C@@H]2O)cc1 (some centres undefined)
  GI50: 37.3 nM
  TGI: 4940 nM

## COc1ccc(S(=O)(=O)N(Cc2ccc3c(n2)C=CC(C)(C)O3)C2CCC2)cc1OC
  GI50: < 10 nM
  TGI: < 10 nM

## COc1cccc(NCc2nnc(Nc3ccc(Cl)cc3)c3ccccc23)c1
  GI50: 1050 nM
  TGI: 4730 nM

## COc1cc(-c2c(C#N)c(N)n3c(nc4ccccc43)c2C#N)cc(Br)c1OC
  GI50: 5540 nM
  TGI: > 100000 nM

## CN1C(=O)N(c2ccccc2)C2N=C(N/N=C/c3ccccc3)SC21 (centres undefined)
  GI50: 510 nM
  TGI: > 100000 nM

## COc1ccc(C2CC(=O)c3c(O)c(OC)c(OC)c(OC)c3O2)c(O)c1 (centres undefined)
  GI50: 83.1 nM
  TGI: 36900 nM

## O=C(C[C@@H](C(=O)NCc1cccc(C(F)(F)F)c1)N1C(=O)[C@@H](N2C(=O)OC[C@@H]2c2ccccc2)[C@H]1/C=C/c1ccccc1)NC1CCN(Cc2ccccc2)CC1
  GI50: 2660 nM
  TGI: 18400 nM

## C[C@]12CC[C@@H]3c4ccc(O)cc4CC[C@H]3[C@@H]1CC[C@@H]2NS(=O)(=O)c1ccc(C(F)(F)F)cc1
  GI50: 2180 nM
  TGI: 6230 nM

## COc1ccc(C(=O)/C=C/c2cccnc2Nc2cc(OC)c(OC)c(OC)c2)cc1
  GI50: 551 nM
  TGI: 2760 nM

## COc1ccc(-c2nc(-c3nc4ccc(C)cc4[nH]3)c3ccccn23)cc1
  GI50: 2320 nM
  TGI: 7130 nM

## Nc1nccc(-c2c(-c3ccc(F)cc3)ncn2CCCN2CCOCC2)n1
  GI50: > 6390 nM
  TGI: > 25000 nM

## O=C(CCCSc1nc(-c2ccc(Cl)cc2)cc(-c2ccc(Cl)cc2)n1)NO
  GI50: 1420 nM
  TGI: 3480 nM

## Cc1[nH]c(N=Nc2ccccc2)nc1N=Nc1ccccc1
  GI50: 1920 nM
  TGI: 5990 nM

## COc1ccc(-n2c(SCc3cc(OC)c(OC)c(OC)c3)nc3ccc(C)cc3c2=O)cc1
  GI50: 3390 nM
  TGI: 48300 nM

## COc1ccc(-c2cc3c(nn2)-c2ccccc2C3=O)cc1
  GI50: > 100000 nM
  TGI: > 100000 nM

## COc1cc(Cn2c(-c3ccccc3)cc3c2-c2oncc2CC3)cc(OC)c1OC
  GI50: 298 nM
  TGI: 2210 nM

## CC[C@H](C)[C@H](NC(=O)[C@H]1CCCCN1C)C(=O)N(C)[C@H](CCc1nc(C(=O)N[C@@H](Cc2ccccc2)C[C@H](C)C(=O)OC)cs1)C(C)C
  GI50: 69.6 nM

## Cn1cc(C2=C(c3cn(C)c4c(N)cccc34)C(=O)NC2=O)c2ccccc21
  GI50: 1280 nM
  TGI: > 25000 nM

## CCOC(=O)/C(O)=C(/C=NC(=S)c1ccncc1)C(=O)OCC
  GI50: > 100000 nM
  TGI: > 100000 nM

## NC(N)=NC(N)=Nc1cc2ccccc2c2ccccc12
  GI50: 2810 nM
  TGI: 14300 nM

## C=C1C(=O)O[C@H]2[C@H]1CC/C(COC(=O)/C=C\C(=O)NCc1ccc(Cn3c(=O)sn(-c4ccc(C#N)cc4)c3=O)cc1)=C\CC[C@@]1(C)O[C@@H]21
  GI50: 735 nM
  TGI: 1670 nM

## CN(C)CCNc1ccc2ncc(C#Cc3cncc(C(=O)Nc4ccc(CN5CCN(C)CC5)c(C(F)(F)F)c4)c3)n2n1
  GI50: 617 nM
  TGI: 1410 nM

## CC12CCCC(CC(=O)c3[nH]c4ccccc4c31)C2 (centres undefined)
  GI50: 375 nM
  TGI: 4160 nM

## COc1cc([C@@H]2c3cc4c(cc3C(O[C@@H]3O[C@@H]5CO[C@@H](c6cccs6)OC5[C@H](O)[C@H]3O)C3COC(=O)[C@@H]32)OCO4)cc(OC)c1O (some centres undefined)
  GI50: 91.4 nM
  TGI: 302 nM

## CCCCC/C=C/C/C=C/CCCCCCCC1=NC(C)(C)CN1C(C)C
  GI50: 1370 nM
  TGI: 2720 nM

## Cc1cc(C)cc(Nc2cc(C)nc3nc(C(F)(F)F)nn23)c1
  GI50: 8300 nM
  TGI: > 100000 nM

## C[C@]12CC[C@@H]3c4ccc(O)cc4C[C@@H](CCCCCCCCCS(=O)CCCC(F)(F)C(F)(F)F)[C@H]3[C@@H]1CC[C@@H]2O (some centres undefined)
  GI50: > 100000 nM
  TGI: > 100000 nM

## Cn1cc(C2=C(c3cn(CCCN=C(N)N)c4ccccc34)C(=O)NC2=O)c2ccccc21
  GI50: > 11200 nM
  TGI: > 25000 nM

## Cn1cc(-c2csc(-c3cccc(F)c3)n2)c2cccnc21
  GI50: 20000 nM
  TGI: 55600 nM

## CC(C)CSc1nc(Nc2ccccc2)c(C#N)c(-c2ccc(F)cc2)n1
  GI50: 3070 nM
  TGI: 17400 nM

## CCCCNC(=O)NS(=O)(=O)c1ccc(N2N=C(c3ccc(C)cc3C)CC2c2ccc(N(C)C)cc2)cc1 (centres undefined)
  GI50: 2220 nM
  TGI: 5820 nM

## Cc1cc(C2CCCCC2)n(O)c(=O)c1
  GI50: 1720 nM
  TGI: 8960 nM

## CCCNC(=S)N/N=C(\C)c1ccccn1
  GI50: < 10 nM
  TGI: 109 nM
